Laboratory results from patent US8653134B2, “Hydroxyphenol derivatives, processes for the preparation thereof, pharmaceutical compositions them, and therapeutic uses thereof” (Merck Patent GmbH, priority 2005, dated 2014).

Tests used:
[1] = target: T1, chimeric protein PPARγ-Gal4 (Homo sapiens, UniProt P37231); experiment: PPARγ-Gal4 transactivation test (luciferase reporter) in cotransfected CV-1 cells; assay type: cell-based
T1 construct: expressed in transfected cells; host or cells: CV-1 cells (monkey kidney cells)
T1 sequence (P37231 238-503 limits assumed): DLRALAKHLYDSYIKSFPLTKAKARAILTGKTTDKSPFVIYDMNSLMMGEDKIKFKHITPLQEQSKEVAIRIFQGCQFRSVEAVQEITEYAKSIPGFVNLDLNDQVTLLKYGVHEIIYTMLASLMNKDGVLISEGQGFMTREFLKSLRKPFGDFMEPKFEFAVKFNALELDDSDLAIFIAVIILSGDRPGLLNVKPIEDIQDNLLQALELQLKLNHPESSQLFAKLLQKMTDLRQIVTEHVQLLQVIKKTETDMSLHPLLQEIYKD
Experimental: The measurement of the PPAR activation was performed according to a technique described by Lehmann et al. (J. Biol. Chem., 270, (1995), 12953-12956). CV-1 cells (monkey kidney cells) are cotransfected with an expression vector for the chimeric protein PPARγ-Gal4 and with a “reporter” plasmid that allows expression of the luciferase gene placed under the control of a promoter comprising Gal4 response elements. The cells are seeded in 96-well microplates and cotransfected using a commercial reagent with the reporter plasmid (pG5-tk-pGL3) and the expression vector for the chimeric protein (PPARγ-Gal4). After incubation for 4 hours, whole culture medium (comprising 10% foetal calf serum) is added to the wells. After 24 hours, the medium is removed and replaced with whole medium comprising the test products. The products are left in contact with the cells for 18 hours. The cells are then lysed and the luciferase activity is measured using a luminometer. A PPARγ activation factor can then be calculated by means of the activation of the expression of the reporter gene induced by the product (relative to the control cells that have received no product). In the absence of the PPARγ ligand binding domain (vector expressing Gal4 alone), the luciferase activity measured in the presence of an agonist is zero. The transactivation test using the expression of a chimeric protein Gal-4-PPARγ makes it possible to determine also whether an agonist functions as a “full” agonist or as a “partial” agonist in this system. An agonist is “partial” in this system if it induces a weaker response, i.e. it has lower efficacy, than rosiglitazone, which is a “full” agonist. In concrete terms, in our system, the transactivation obtained at the plateau with a partial agonist will be between 20% and 50% of the maximum response (efficacy) at the plateau of rosiglitazone.

melting point [°C] | Concentration to reach the maximum stimulation of the PPARγ chimeric protein ([1]; CV-1 cells, Gal-4-PPARγ transactivation) [µM] | Emax ([1]; transactivation at the plateau as % of the maximum response (efficacy) of rosiglitazone, CV-1 cells, read-out: Maximum stimulation of the PPARγ chimeric protein obtained with rosiglitazone) [%] | Activation factor of the chimeric protein PPARγ-Gal4 ([1]; concentration 10 μM, CV-1 cells (monkey kidney cells), 18 hours contact, relative to control cells without agonist (=1)) | SMILES
190 | 12.5 | 28 | – | CCCCCOc1cc2c(cc1OCc1cccc(C(=O)O)c1)C(=O)CC2 [Example 4, 3-(3-Oxo-6-pentyloxyindan-5-yloxymethyl)benzoic Acid]
– | – | – | 9.10 | CCCCCCOc1cc2c(cc1OCCCC(=O)O)C(=O)CC2 [Example 7, 4-(6-hexyloxy-3-oxoindan-5-yloxy)butanoic acid]
